The target in this test is T1, humanen mpl-Rezeptor (Homo sapiens, UniProt P40238).
T1 sequence (P40238 26-635): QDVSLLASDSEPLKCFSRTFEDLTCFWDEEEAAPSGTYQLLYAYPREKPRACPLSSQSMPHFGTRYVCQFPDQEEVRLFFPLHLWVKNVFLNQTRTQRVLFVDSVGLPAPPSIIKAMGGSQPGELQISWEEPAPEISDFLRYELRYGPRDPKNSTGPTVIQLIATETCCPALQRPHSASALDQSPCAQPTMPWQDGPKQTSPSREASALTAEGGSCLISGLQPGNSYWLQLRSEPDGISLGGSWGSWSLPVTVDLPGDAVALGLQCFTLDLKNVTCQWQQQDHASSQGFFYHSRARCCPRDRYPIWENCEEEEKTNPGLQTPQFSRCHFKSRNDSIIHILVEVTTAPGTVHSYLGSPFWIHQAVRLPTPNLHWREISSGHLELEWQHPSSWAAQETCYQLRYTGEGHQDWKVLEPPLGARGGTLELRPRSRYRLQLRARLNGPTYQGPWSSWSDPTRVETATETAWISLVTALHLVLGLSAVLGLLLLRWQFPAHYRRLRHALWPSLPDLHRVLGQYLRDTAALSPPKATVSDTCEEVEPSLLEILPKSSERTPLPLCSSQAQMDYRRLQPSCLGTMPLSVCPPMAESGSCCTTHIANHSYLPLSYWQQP
Nature of the test: TPO-dependent cell proliferation test with BaF3 cells transfected with the human mpl receptor (BaF3/mpl), WST readout. The class given is cell-based. Particulars: BaF3-mpl Rezeptor Proliferationstest; 48 bis 72 h; half-maximal stimulation after background subtraction. From the text:
Die Bioaktivität der erfindungsgemäßen Verbindungen kann mittels eines TPO-abhängigen Zellproliferationstests gemessen werden. Die Substanzen dürfen keine Wirkung auf die nicht transfektierten parenteralen BaF3 Zellen ausüben. Murine IL-3-abhängig wachsende BaF3 Zellen wurden mit dem humanen mpl-Rezeptor transfektiert. In Abwesenheit von IL-3 ist die Proliferation und das Überleben dieser Zellen abhängig von TPO. Die parentale, untransfektierte Zell-Linie reagiert nicht auf humanes TPO, proliferiert aber in Gegenwart von IL-3. Die Bestimmung der Zellproliferation erfolgt nach literaturbekannten Verfahren (WO 96/40750). Die chemischen Substanz-Bibliotheken wurden in Bioassays mit den beiden obigen Zell-Linien gescreent. Die Zellen wurden in Gegenwart von IL-3 (BaF3 parental) bzw. TPO (BaF3-mpl-Rezeptor tragend = BaF3/mpl) in RPMI 1640 Medium in Gegenwart von 10 % FCS (fetales Kälberserum) gezüchtet. Für den Test wurden die Zellen zweimal in IL-3 bzw. TPO freiem Medium gewaschen und im Medium, das kein TPO bzw. IL-3 enthielt, resuspendiert. Diese Zellsuspension wurde dann zur Vertiefung einer 96 Tüpfelplatte (Costar), die TPO oder IL-3 und/oder Verbindung enthielt, in einer Menge von 10^4 Zellen/Vertiefung zugegeben. Die Zellen wurden dann für 48 bis 72 h bei 37°C in einem CO2 Inkubator inkubiert. Die proliferative Aktivität wurde bestimmt durch die Zugabe von WST (WST: Zell-Proliferations-Reagens; BM-Katalog-Nr. 1644807 "Tetrazolium-Salz").WST wird von proliferierenden Zellen zu Formazan umgewandelt und diese Umwandlung, als Maß für die Proliferation wird mittels OD (OD: optical density) bei 570 nm in einem ELISA Platten Meßgerät bestimmt.
Zur Ermittlung der halbmaximalen Stimulation wurde vom maximal erzielten Signal der Background (Zellen ohne Substanz) abgezogen und dieser Wert durch 2 geteilt. Dieser Wert plus dem Background-Wert wurden dann zur Bestimmung der EC50 (halbmaximale excitatorv concentration; Substratkonzentration, bei der die Substanz ihre halbmaximale Wirksamkeit im BaF3-mpl Rezeptor Proliferationstest ausübt) herangezogen. In Tabelle 3 sind die EC50-Werte bespielhaft für drei untersuchte Verbindungen dargestellt.
Die untersuchten Verbindungen stimulieren die Proliferation von mit mpl-Rezepror transfektierten BaF3 Zellen in einer Dosis abhängigen Weise. Die Proliferation von parenteralen Zell-Linien wird nicht stimuliert. Auch in Abwesenheit von TPO stimulieren die Verbindungen die Proliferation der BaF3/mpl-Zellen in wochenlanger Kultur. Tabelle 3
On to `O=[N+]([O-])c1ccc2c(N=Nc3ccc4ccccc4c3O)c(O)cc(S(=O)(=O)O)c2c1` [Beispiel 9], for which the EC50 is 1370 nM.

As to `O=[N+]([O-])c1ccc2c(N=Nc3c(O)ccc4ccccc34)c(O)cc(S(=O)(=O)O)c2c1` [Beispiel 12], the midpoint of the response, the EC50, lay at 1590 nM. With `Cc1ccc(O)c(N=Nc2c(O)cc(S(=O)(=O)O)c3ccccc23)c1` [Beispiel 13] the figure was 5580 nM; with `Cc1ccc(NC(=O)c2cc3ccccc3c(N=Nc3cc(S(=O)(=O)O)ccc3O)c2O)c(C)c1` [Beispiel 15], 4480 nM; with `O=S(=O)(O)c1cccc2c(O)c(N=Nc3ccc(C(F)(F)F)cc3O)ccc12` [Beispiel 20, 5-Hydroxy-6-(2-hydroxy-4-trifluormethyl-phenylazo)naphthalin-1-sulfonsäure], 72.8 nM.

These data come from patent EP1104674A1, “O,o'-dihydroxy azo dyes as medicinal components with TPO-agonistic or -synergetic activity” (Curacyte AG, priority 1999, dated 2001).
